# Results published in patent US9492546B2, “Use of bethanechol for treatment of Xerostomia” (Acacia Pharma Limited, priority 2011, dated 2016).
# Tests used:
# [1] = cited from earlier work
# [2] = test system: healthy volunteers; assay: Phase 1 study, formulation applied topically to the oral mucosa; format: in vivo, human; settings: oral and oromucosal
# Experimental: In a Phase 1 study involving four healthy volunteers, Formulation 14C applied topically to the oral mucosa at doses up to 20 mg, kept in situ for two minutes.
# This local absorption is likely to deliver enough bethanechol to the minor salivary glands, numbering in the hundreds to thousands and located immediately below the oral mucosa, to stimulate them to produce mucin-rich saliva which is disproportionately important for ensuring a comfortable month feel. When added to the salivary stimulation achieved by oral ingestion of bethanechol, it may reasonably be concluded that the formulation can produce better relief from xerostomia, with fewer side-effects, than purely systemic dosing of bethanechol.
# [3] = test system: New Zealand White rabbits; assay: Heart rate in anaesthetised rabbits, topical formulations versus IV bethanechol; format: in vivo, rabbit; settings: range of doses
# Text: More specifically, adult male New Zealand White rabbits, of approximate body weight 2.0 to 3 kg, were allocated in groups of three to be treated with formulations of bethanechol given in Table 1, designated 2, 6, 9 and 14C, along with each of their matching placebos. Animals were anaesthetised with urethane, administered IP, and heart rate was monitored via ECG leads. They were placed in the prone position after being anaesthetised (this inhibits the drug from entering the GI tract). Salivation was measured by inserting pre-weighed cotton wool balls into the oral cavity, removing after five or ten minutes and weighing. The difference in weight provided an estimate of salivary flow.
# At the end of the experiment, one animal from each group was given bethanechol intravenously at a range of doses, in order to produce a dose-response curve for heart rate. This was compared to the effect of the active formulations, when given topically, on heart rate.
# [4] = test system: rabbits; assay: Blood pressure and heart rate in anaesthetised rabbits (separate experiment); format: in vivo, rabbit; settings: intravenous, dose-related at 30, 100 and 300 μg/kg
# Text: In a further, separate experiment, formulation 14C and its matching placebo were given to 3 anaesthetised rabbits in which blood pressure, via an indwelling cannula in the carotid artery, was monitored, along with heart rate.
# [5] = test system: patients with xerostomia; settings: administered orally, small number of clinical studies; cited from earlier work
# [6] = cited from earlier work; remark: listed apart in the source
compound,measurement,setting,value
"CC(C[N+](C)(C)C)OC(N)=O (centres unmarked) [bethanechol chloride, Bethanechol chloride]",Penetration into the CNS,[1]; at therapeutic doses,does not significantly penetrate into the CNS
same,Absorption from the GI tract,[1]; in vivo,only poorly absorbed
same,Pharmacokinetics (linearity),[2],linear
same,Effect on heart rate,[3],marked and dose-dependent bradycardia
same,Effect on blood pressure,[4],reduced
same,Effect on heart rate,[4],reduced
same,Salivary flow,[5],increase salivary flow
same,aqueous solubility,[6],high
